Experimental data published in patent publication US9567586B2, “EpCAM aptamer for detection of cancer stem cells” (DEAKIN UNIVERSITY, priority 2012, dated 2017).

Columns and labels:
EpCAM [1] = assay: Immunofluorescence staining of paraffin embedded xenograft tumour sections; set-up: species or system human; key to Quantification of anti-EpCAM staining by immunofluorescence: ‘−’ no staining; ‘+’ faint incomplete staining in >10% of cells; ‘++’ moderate complete membrance staining; ‘+++’ strong complete membrance staining; details: for Quantification of anti-EpCAM staining by immunofluorescence: U118MG xenograft
Experimental: (§1) A: Immunofluorescence staining of breast cancer (T47D, MCF7 and MDA-MB-231), colon cancer (HT-29) and glioblastoma (U118MG) xenograft tumours by EpCAM aptamers, DT3 and 23, control aptamer and the anti-EpCAM antibody, 323/A3 (Blue: nuclei; Red: EpCAM positive staining). B: Immunohistochemistry was performed with the anti-EpCAM antibody BerEP4, and all tumours were evaluated by haematoxylin and eosin staining for morphological confirmation. Aptamer staining was performed for 15 min at 37° C., while 323/A3 staining was performed at 4° C. overnight and BerEP4 was performed at room temperature for 20 min. All fluorescent images were taken at 60×, while light microscopy images were taken at 20×. Images are representative of at least three separate experiments. Scale bar: 50 μm.
(§2) The cell lines of human origin used in this study were purchased from American type Culture Collection. They were glioblastoma U118-MG; breast carcinoma MCF-7, MDA-MB-231 and T47D; and colorectal adenocarcinoma HT-29. Cells were grown and maintained in culture with Dulbecco's Modified Eagle medium (DMEM) (Invitrogen, Victoria, Australia) supplemented with 10% fetal calf serum (MCF-7, T47D, HT-29, and U118-MG), or Roswell Park Memorial Institute 1640 (RPMI 1640) (Invitrogen) with 10% fetal calf serum (MDA-MB-231). Cells were maintained at 37 ^CC in a humidified atmosphere containing 5% CO2. For xenograft studies, single cell suspensions were harvested by trypsinisation, washed with PBS and resuspended in 0.1 mL of PBS for implantation in BALB/c-Foxn1 ^nu female mice. Once tumours had reached approximately […], they were excised and fixed in 10% neutral buffered formalin prior to processing and embedding. All animal procedures were approved by Deakin University Animal Welfare Committee, and in accordance with the Australian Code of Practice for the Care and Use of Animals for Scientific Purposes.
(§3) Sections from each of the xenograft tumours were cut at 4 μm onto polylysine coated slides prior to deparaffinisation with Histoclear and rehydration through graded ethanol. Heat induced antigen retrieval was performed in a microwave oven using Tris-EDTA buffer (10 mM Tris, 1 mM EDTA, 0.05% Tween 20, pH 9.0) for 20 min and the slides were allowed to cool prior to blocking with 0.1 mg/mL tRNA, 0.1 mg/mL salmon sperm DNA and 1 mg/mL bovine serum albumin (BSA) in phosphate buffered saline (PBS) for 20 min. Following the blocking step, slides were washed in PBS containing 0.1% Tween 20 twice for 2 min prior to incubation with either aptamer or antibody. Aptamers were prepared as previously described (Shigdar S et al, supra). Briefly, aptamers were heated to 85° C. for 5 min, allowed to cool to room temperature for 10 min and then heated at 37° C. for 15 min. Slides were incubated with aptamers at 100 nM concentration in a solution of PBS containing 5 mM MgCl2, 0.1 mg/mL tRNA, 1 mg/mL BSA, 10% dextran sulphate and 500 μg/mL heparin for 15 min at 37° C. The slides were then washed three times for 5 min each prior to incubation with Bisbenzimide Hoechst 33342 (3 μg/mL) for 10 min. Slides were then mounted using VECTASHIELD and coverslipped prior to visualisation using a Fluoview FV10i laser scanning confocal microscope. All images used for direct comparison were taken with identical exposure parameters and are presented without any digital contrast alteration or background subtraction. Antibody staining was performed using the anti-EpCAM antibody 323/A3 (ab8601, Abcam). […]

HT-29 tumor sphere = assay: Penetration and retention in HT-29 tumor sphere (confocal microscopy); type: cell-based, human; details: for penetration into tumor sphere: 100 nM, 0.5-4 h incubation, sphere ~300-400 μm; for fluorescence signal retained in tumor sphere: 4 h incubation, wash, further 24 h in culture medium
Experimental: HT-29 or HEK293T cells were cultured in stem cell culture medium (DMEM/F12 with 20 ng/ml EGF and FGF and B27). […] After incubating for 0.5, 1, 2 or 4 h, the spheres were washed twice with PBS and imaged via fluorescence confocal microscopy. A phase contrast image of the sphere was also taken for each sample. Panel A fluorescence image for antibody EpCAM, Panel B phase contrast image for tumor sphere. Panel C: fluorescence image for aptamer EpCAM 23, Panel D: phase contrast image for tumor sphere. Panel E: fluorescence image aptamer control, Panel F: phase contrast image for tumor sphere.
Tumour spheres were incubated with EpCAM antibody, aptamer-23 or control aptamer for 4 h. After washing with PBS twice, the tumor spheres were incubated with the culture medium for a further 24 h followed by confocal microscopy. Panel A: fluorescence image for antibody or aptamer. Panel B: phase contrast image for tumour sphere.
To study the ability of EpCAM aptamer or antibody to penetrate tumors, the inventors used a three-dimensional in vitro tumor sphere model. […] After incubating for the indicated time, the spheres were washed twice with PBS and imaged via fluorescence confocal microscopy. A phase contrast image of the sphere was also taken for each sample. […] A retention study was performed whereby the tumour spheres were incubated with EpCAM antibody, aptamer-23 or control aptamer for 4 h, after washing with PBS twice, the tumor spheres were incubated with the culture medium for a further 24 h followed by confocal microscopy.

EpCAM [2] = target: T1, EpCAM (Homo sapiens, UniProt P16422); assay: Immunofluorescence staining of paraffin embedded xenograft tumour sections; set-up: from tissue; host or cells: xenograft tumours of T47D, MCF7, MDA-MB-231, HT-29 and U118MG cells grown in BALB/c-Foxn1 nu mice, formalin-fixed and paraffin-embedded; key to Quantification of anti-EpCAM staining by immunofluorescence: ‘−’ no staining; ‘+’ faint incomplete staining in >10% of cells; ‘++’ moderate complete membrance staining; ‘+++’ strong complete membrance staining
T1 sequence (P16422 24-314): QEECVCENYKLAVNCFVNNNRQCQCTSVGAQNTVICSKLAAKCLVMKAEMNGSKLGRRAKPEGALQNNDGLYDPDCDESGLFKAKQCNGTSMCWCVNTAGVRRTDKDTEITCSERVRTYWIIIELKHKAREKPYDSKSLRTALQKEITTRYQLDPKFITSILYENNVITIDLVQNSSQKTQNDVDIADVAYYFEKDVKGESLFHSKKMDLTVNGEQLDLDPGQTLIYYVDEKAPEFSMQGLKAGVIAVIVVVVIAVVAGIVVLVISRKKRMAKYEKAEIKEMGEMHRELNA
Experimental: as §1, §2
as §3, with “Abcam). Slides were washed and blocked following the same protocol as previously described prior to antibody staining. The antibody was prepared at a concentration of 10 μg/mL and the slides were incubated overnight at 4° C. Slides were then washed three times for 5 min followed by incubation with a goat-anti-mouse IgG AlexaFluor 647 conjugate (Invitrogen) at a concentration of 10 μg/mL for 2 h prior to washing, staining with Bisbenzimide Hoechst 33342, and coverslipping.” for “Abcam).”

Row | Substance | Quantification of anti-EpCAM staining by immunofluorescence (EpCAM [1]) | staining of U118MG xenograft (in words) (EpCAM [1]; U118MG xenograft that does not express EpCAM) | penetration into tumor sphere (HT-29 tumor sphere) | fluorescence signal retained in tumor sphere (HT-29 tumor sphere) | retention by the tumor cells (HT-29 tumor sphere; after 4 h incubation and wash) | staining of HT-29 xenograft sections (in words) (EpCAM [2]; HT-29 colorectal cancer xenograft) | Quantification of anti-EpCAM staining by immunofluorescence (EpCAM [2]; HT-29 xenograft) | Quantification of anti-EpCAM staining by immunofluorescence (EpCAM [2]; MCF7 xenograft) | Quantification of anti-EpCAM staining by immunofluorescence (EpCAM [2]; MDA-MB-231 xenograft) | detection of EpCAM in MDA-MB-231 xenograft tumour (in words) (EpCAM [2]; MDA-MB-231 xenograft, low EpCAM expression) | Quantification of anti-EpCAM staining by immunofluorescence (EpCAM [2]; T47D xenograft) | staining of human breast cancer xenografts (in words) (EpCAM [2]; T47D, MCF7 and MDA-MB-231 xenografts, 100 nM, 15 min, 37° C., dextran sulphate and heparin)
1 | 5′-ACGUAUCCCUUUUCGCGUA-3′ (RNA aptamer, fluorescent dye conjugate used, modifications not given here, further chemistry not given here) [compound 23] | − | no staining detectable | could penetrate into the core or center of the tumor sphere | clearly detectable signal | at least 24 hours | strong positive staining | +++ | ++ | + (‘+’ faint incomplete staining in >10% of cells) | successfully detect EpCAM | +++ | highly sensitive staining
2 | 5′-DY647-mGCmGACUmGmGUUmACCCmGmGUCmGdT-3′ (GCGACUGGUUACCCGGUCGN; 5' DY647, 2'-O-methyl, 3' dT, further chemistry not given here) [Control] | − |  | only limited non-specific binding | very weak signal |  |  | − | − | − |  | − | 
